{"source": "patent US20050053680A1", "about": "“Pediculicidal compound” (priority 2002, published 2005)", "key": {"[1]": {"test_system": "Human lice, Pediculus humanus", "settings": "in vivo"}, "Louse eggs": {"test_system": "Louse eggs", "settings": "for inhibition of embryo development before eyespot stage (in words): Table 10, Undeveloped; for Number of eggs Half-hatched / Number of eggs Undeveloped: Laurex CS 4.00%, GMS N/SE 2.00%; for Undeveloped % (in brackets, Abbott's correction): corrected; for Undeveloped %: uncorrected; for activity against louse eggs (in words): after correction for hatching failure in the Control Group"}, "[2]": {"settings": "Table 10, H2O vehicle, Laurex CS 4.00% (163 eggs), GMS N/SE 2.00% (176 eggs)"}, "[3]": {"settings": "Table 10, IPA/water vehicle, Laurex CS 4.00% (102 eggs), GMS N/SE 2.00% (145 eggs)"}, "[4]": {"settings": "Table 10, IPA/water vehicle, IPA/H2O mix 40.5"}}, "note": "Read-outs that look alike come from different tables or passages of the source.", "data": [{"compound": "CCCCCCCCCCCCCCCC[N+](C)(C)C.[Cl-]", "note": "[Dehyquart ACA, Cetrimonium chloride]", "values": [{"measurement": "Mortality % (Killed)", "setting": "[1]", "result": "20 (10) %"}, {"measurement": "Mortality % Total", "setting": "[1]", "result": "20 (10) %"}, {"measurement": "Number of eggs", "setting": "[1]", "result": 34}, {"measurement": "Number of lice Killed", "setting": "[1]", "result": 2}, {"measurement": "Number of lice Moribund", "setting": "[1]", "result": 2}]}, {"compound": "CCCCCCCCCCCCCCCCCC(=O)OCC(O)CO", "note": "(stereo not drawn) [GMS N/SE, Glyceryl stearate]", "values": [{"measurement": "Number of lice Moribund", "setting": "[1]", "result": 0}, {"measurement": "pediculicidal activity (in words)", "setting": "[1]", "result": "showed any activity"}, {"measurement": "inhibition of embryo development before eyespot stage (in words)", "setting": "Louse eggs", "result": "activity to inhibit the development of the embryo"}, {"measurement": "Number of eggs Hatched", "setting": "Louse eggs; [2]", "result": 135}, {"measurement": "Number of eggs Half-hatched", "setting": "Louse eggs; Table 10, H2O vehicle", "result": 7}, {"measurement": "Number of eggs Undeveloped", "setting": "Louse eggs; Table 10, H2O vehicle", "result": 27}, {"measurement": "Undeveloped % (in brackets, Abbott's correction)", "setting": "Louse eggs; Table 10, H2O vehicle", "result": 0, "unit": "%"}, {"measurement": "Undeveloped %", "setting": "Louse eggs; Table 10, H2O vehicle", "result": 15.3, "unit": "%"}, {"measurement": "Number of eggs Hatched", "setting": "Louse eggs; [3]", "result": 45}, {"measurement": "Number of eggs Half-hatched", "setting": "Louse eggs; Table 10, IPA/water vehicle", "result": 1}, {"measurement": "Number of eggs Undeveloped", "setting": "Louse eggs; Table 10, IPA/water vehicle", "result": 93}, {"measurement": "Undeveloped % (in brackets, Abbott's correction)", "setting": "Louse eggs; Table 10, IPA/water vehicle", "result": 39.7, "unit": "%"}, {"measurement": "Undeveloped %", "setting": "Louse eggs; [4]", "result": 64.1, "unit": "%"}, {"measurement": "activity against louse eggs (in words)", "setting": "Louse eggs; Table 10", "result": "activity could be detected"}]}, {"compound": "CCCCCCCCCCCCCCCCCCO", "note": "[Laurex CS, Cetearyl alcohol]", "values": [{"measurement": "pediculicidal activity (in words)", "setting": "[1]", "result": "killed all lice and prevented them from laying any eggs"}, {"measurement": "pediculicidal activity at different time exposures (in words)", "setting": "[1]", "result": "some activity can be demonstrated from 30 minutes application"}, {"measurement": "inhibition of embryo development before eyespot stage (in words)", "setting": "Louse eggs", "result": "activity to inhibit the development of the embryo"}, {"measurement": "Number of eggs Hatched", "setting": "Louse eggs; [2]", "result": 117}, {"measurement": "Number of eggs Half-hatched", "setting": "Louse eggs; Table 10, H2O vehicle", "result": 1}, {"measurement": "Number of eggs Undeveloped", "setting": "Louse eggs; Table 10, H2O vehicle", "result": 34}, {"measurement": "Undeveloped % (in brackets, Abbott's correction)", "setting": "Louse eggs; Table 10, H2O vehicle", "result": 0, "unit": "%"}, {"measurement": "Undeveloped %", "setting": "Louse eggs; Table 10, H2O vehicle", "result": 20.9, "unit": "%"}, {"measurement": "Number of eggs Hatched", "setting": "Louse eggs; [3]", "result": 19}, {"measurement": "Number of eggs Half-hatched", "setting": "Louse eggs; Table 10, IPA/water vehicle", "result": 1}, {"measurement": "Number of eggs Undeveloped", "setting": "Louse eggs; Table 10, IPA/water vehicle", "result": 70}, {"measurement": "Undeveloped % (in brackets, Abbott's correction)", "setting": "Louse eggs; Table 10, IPA/water vehicle", "result": 47.2, "unit": "%"}, {"measurement": "Undeveloped %", "setting": "Louse eggs; [4]", "result": 68.6, "unit": "%"}, {"measurement": "kill of louse eggs", "setting": "Louse eggs; after correction for Control Group, Table 10", "result": "> 50", "unit": "%"}, {"measurement": "activity against louse eggs (in words)", "setting": "Louse eggs; Table 10", "result": "activity could be detected"}]}, {"compound": "Liquid Paraffin [reference compound]", "values": [{"measurement": "Mortality % (Killed)", "setting": "[1]", "result": "100 (100) %"}, {"measurement": "Mortality % Total", "setting": "[1]", "result": "100 (100) %"}]}, {"compound": "Methylparaben & Propylparaben & Ethylparaben [Nipasept]", "values": [{"measurement": "Mortality % (Killed)", "setting": "[1]", "result": "20 (15) %"}, {"measurement": "Mortality % Total", "setting": "[1]", "result": "20 (15) %"}]}, {"compound": "Thymus Vulgaris (Thyme) extract [Thyme Extract]", "values": [{"measurement": "Mortality % (Killed)", "setting": "[1]", "result": "21 (5) %"}, {"measurement": "Mortality % Total", "setting": "[1]", "result": "21 (5) %"}]}, {"compound": "Urtica Dioica (Nettle) extract [Nettle Extract]", "values": [{"measurement": "Mortality % (Killed)", "setting": "[1]", "result": "24 (14) %"}, {"measurement": "Mortality % Total", "setting": "[1]", "result": "24 (14) %"}]}]}
